Data on 2 compounds can be found in patent US8765717B2 (Monte Verde S.A., priority 2008, dated 2014).

Each structure is given as a SMILES string.

Series [1] deals with patients suffering from primary hip or knee arthritis (I, II or III). Kind of series: Clinical trial: pain VAS. Conditions: check-up visits every fifteen days. It is filed as in vivo, humans. The method, then:
(§1) Data from a clinical trial with humans is provided herein. The trial was performed with three arms, at random and blind, of patients suffering from different degrees of primary hip or knee arthritis (I, II or III). […] Pain and joint function performance was checked every fifteen days by using the pain VAS and the Lequesne algo-functional index of severity. The VAS assesses the pain in the knee by a visual scale of 100 mm with a total of 10 divisions wherein 0 means no pain and 10 means the deepest pain. […] The severity index is given by the addition of the scores obtained in each item, wherein 24 is the maximum possible score. The higher the index, the more severe is the clinical picture.

Series [2] has the same test system. Nature of the series: Clinical trial: Lequesne algo-functional index of severity. It is filed as in vivo, humans. To be noted: for Decrease in the Lequesne scale in the 25% of patients with enhanced recovery / Decrease in the Lequesne scale in the 25% of patients with enhanced recovery (percent): 25% of the patients. The method, then:
as §1

The conditions of series [3]: 37° C.; cited from earlier work.
The conditions of series [4]: patients in clinical trials; cited from earlier work.

Take `N[C@H]1C(O)O[C@H](CO)[C@@H](O)[C@@H]1O` (stereo partly drawn) [glucosamine, 2-amin-2 desoxy-alpha-D-glucose]: in series [1], the “Time after starting treatment at which VAS value showed the highest reduction” value turned out to be 30 days. Further, in series [2] (90 days oral treatment), the “Decrease in the Lequesne scale in the 25% of patients with enhanced recovery” value stood at 3.75 scores and the “Decrease in the Lequesne scale in the 25% of patients with enhanced recovery (percent)” value is given as 32%. In addition, in series [2] (50% of the patients, 90 days oral treatment), the “Average improvement in the Lequesne index in 50% of the patients” value was determined as 1.5 scores. The “Lequesne scale (Algo-functional index) average decrease” value in series [2] (90 days, single daily oral dose, 1,500 mg glucosamine sulphate and/or 15 mg meloxicam) was determined as 11%. The pKa in series [3] is listed as 6.91.

For the compound `Cc1cnc(NC(=O)C2=C(O)c3ccccc3S(=O)(=O)N2C)s1` [meloxicam, (8E)-8-[hydroxy-[(5-methyl-1,3-thiazol-2-yl)amino]methylidene]-9-methyl-10,10-dioxo-10λ^6-thia-9-azabicyclo[4.4.0]deca-1,3,5-trien-7-one], in series [1], the “Time after starting treatment at which VAS value showed the highest reduction” value is recorded as 15 days. Besides, the “Occurrence of adverse gastrointestinal events (bleeding, perforation or ulcers) versus other nonsteroidal anti-inflammatory drugs” value in series [4] was “less frequent”. In addition, in series [2] (90 days oral treatment), the “Decrease in the Lequesne scale in the 25% of patients with enhanced recovery” value was 4.5 scores and the “Decrease in the Lequesne scale in the 25% of patients with enhanced recovery (percent)” value came out at 38%.

Usually pKa stands for the pH at which an ionisable group is half protonated.
